Experiments:
porcine liver esterase = assay: Enzymatic generation of gNO with porcine liver esterase, sodium nitrite and ester substrates; assay type: biochemical; settings: for substrate ranking for porcine liver esterase (gNO generation): FIG. 31, measured hourly; for gNO production: porcine liver esterase, sodium nitrite
Protocol: (§1) Enzymatic Generation of gNO: A 200 μl reaction solution was prepared by combining water, an acetate ester (ethyl acetate, isobutyl acetate, octyl acetate) or a triglyceride such as triacetin (glyceryl triacetate), sodium nitrite, and an esterase (porcine liver esterase, rhyzopus oryzae esterase) or a lipase (porcine pancreatic lipase, candida rugosa lipase). The solution was then added to a 2 ml vial, which was closed tightly with a septum cap. The head gas was sampled every hour from the reaction containing vials in order to determine gNO concentrations.

candida rugosa lipase = assay: Enzymatic generation of gNO with candida rugosa lipase, sodium nitrite and ester substrates; assay type: biochemical
Protocol: as §1

SMILES	substrate ranking for porcine liver esterase (gNO generation) (porcine liver esterase)	gNO production (porcine liver esterase; 0.5% triacetin in the assay) [ppmV]	gNO production (porcine liver esterase; 1% triacetin in the assay)	gNO production (porcine liver esterase; over the 6 hour experiment) [ppmV]	nitric oxide production (in words) (candida rugosa lipase; candida rugosa lipase tested against four substrates)	gNO production (candida rugosa lipase; candida rugosa lipase, sodium nitrite, one hour after the reaction was started) [ppmV]
CCOC(C)=O [ethyl acetate]	best substrates	–	–	–	–	–
CC(=O)OCC(COC(C)=O)OC(C)=O [triacetin, glyceryl triacetate]	best substrates	≤ 200	up to 250 ppmV	> 350	able to produce high amounts of nitric oxide	≥ 200
